# System: rabbit heart
# Experiment: Infarct size in isolated rabbit hearts, A3-receptor mediation of preconditioning, Example 3
# Method: New Zealand white rabbits of either sex, between 1.4-2.4 kg, were anesthetized with intravenous sodium pentobarbital (30 mg/kg). The neck was opened and a tracheotomy was performed. The rabbits were ventilated with 100% oxygen via a positive pressure respirator (MD industries, Mobile, Ala.). Ventilation rate was 30-35 breaths per minute, and tidal volume was approximately 15 ml. A left thoracotomy was performed in the fourth intercostal space and pericardium was opened to expose the heart. A 2-0 silk suture with an RB taper needle was passed around a branch of the left coronary artery, and the end of the silk were threaded through a small vinyl tube to form a snare. The heads were quickly excised and mounted on a Langendorff apparatus and perfused at constant pressure with Krebs buffer containing (in mM) 118.5 NaCl, 4.7 KCl, 1.2 MgSO4, 1.2 K2 PO4, 24.3 NaHCO3, 2.5 CaCl2 and 10 glucose. […] The temperature of the perfusate was maintained at 37° C. The perfusion pressure was kept at 75 mm Hg. Pacing electrodes were placed on the right atrium and all hearts were paced at 200 beats/minute with pulses of 5 volts and 4 msec duration to keep the heart rate constant. A fluid-filled latex balloon connected to a transducer via PE240 tubing was inserted into the left ventricle. Balloon volume was adjusted to set the left ventricular diastolic pressure at 10 mm Hg at the beginning of the experiment. Total coronary artery flow was measured by timed collection of buffer from the chamber into a graduated cylinder. Regional ischemia was effected by pulling the snare tight and clamping the tube with a hemostat. Global ischemia was performed by clamping the inflow tubing of the Langendorff apparatus. Reperfusion was achieved by releasing the restriction. All hearts were allowed to equilibrate for 20 minutes before the experiments were started. Heart rate (HR), coronary flow (CF) and left ventricular developed pressure (LVDP) were recorded at the point just before and at the end of each treatment with the pacing momentarily turned off. […] The hearts were removed from the Langendorff apparatus, weighed and then frozen. The hearts were cut into 2 mm transverse slices. The slices were thawed and incubated in 1% triphenyl tetrazolium chloride (TTC) in pH 7.4 buffer for 20 minutes at 37° C. TTC reacts with NADH and dehydrogenase enzymes and stains all tissue still having them to a deep red color. […] After staining, the area of infarcted tissue (TTC negative tissue) and the risk zone (area lacking fluorescence under ultraviolet light) in each slice were traced. The area of infarct and risk zone were determined by planimetry of the tracing. The volume of infarcted myocardium and myocardium at risk was then calculated by multiplying the planimetered areas by the slice thickness. The methods utilized in this example are identical to those described in Example 1. All hearts received 30 minutes of regional ischemia as described in Example 1. The control group (n=8) hearts received only 30 minutes of ischemia. Preconditioned (PC) hearts (n=10) received 5 minutes of global ischemia and 10 minutes of reperfusion prior to the regional ischemia. Adenosine (ADO) treated hearts (n=6) received 10 μM adenosine for 5 minutes prior to regional ischemia. APNEA treated hearts (n=6) received 65 μM APNEA for 5 minutes prior to regional ischemia. In groups receiving the nonselective adenosine blocker, 8-SPT, the blocker was included in the perfusate for 15 minutes at 100 μM starting 5 minutes before the exposure of ADO (ADO-SPT group, n=6), or APNEA (APNEA-SPT group, n=6 ) or 5 minutes before and after 5 minutes of preconditioning ischemia (PC-SPT group, n=5). […] For the PC-BW group (n=5), the A3-receptor antagonist, BW A1433, [Linden J, et al., Molecular Pharmacology 44:524-532 (1993)], was administered at a dose of 200 nM in the perfusate for 5 minutes before and 5 minutes after PC ischemia.
structure (smiles),measurement,setting,value
"Nc1ncnc2c1ncn2[C@@H]1O[C@H](CO)[C@@H](O)[C@H]1O [ADO, Adenosine]",Infarct size (of the risk area),"ADO 10 μM, 5 minutes, control 32.2±1.5%, PC 8.8±2.3%",11.4±2.3%
"Nc1ccc(CCNc2ncnc3c2ncn3[C@@H]2O[C@H](CO)[C@@H](O)[C@H]2O)cc1 [APNEA, N^6-(2-(4-aminophenyl)ethyl) adenosine]",Infarct size (of the risk area),"APNEA 65 μM (so in the source), 5 minutes, control 32.2±1.5%",12.6±2.2%
"CCCn1c(=O)c2[nH]c(C3CCCC3)nc2n(CCC)c1=O [DPCPX, 8-cyclopentyl-1,3-dipropylxanthine]",Infarct size (of the risk area),DPCPX 200 nM + ADO,14.4±2.8%
same,Infarct size (of the risk area),DPCPX 200 nM + APNEA,8.7±1.7%
same,Infarct size (of the risk area),DPCPX 200 nM + PC,15.6±7.8%
"Cn1c(=O)c2[nH]c(-c3ccc(S(=O)(=O)O)cc3)nc2n(C)c1=O [SPT, 8-(p-Sulfophenyl)-theophylline]",Infarct size (of the risk area),8-SPT 100 μM + ADO,29.8±3.7%
same,Infarct size (of the risk area),8-SPT 100 μM + APNEA,30.3±3.3%
same,Infarct size (of the risk area),8-SPT 100 μM + PC,33.8±2.7%
